Test results from US11730743B2, “Protection of cells from degeneration and treatment of geographic atrophy” (University of Kentucky Research Foundation, priority 2012, dated 2023).

Assays:
[1] = test system: Dicer1f/f mice; experiment: RPE degeneration induced by subretinal AAV1-BEST1-Cre (DICER1 loss); assay type: in vivo; settings: inhibitor intravitreous
Method: Immunolabeling. Human eyes fixed in 2-4% paraformaldehyde were prepared as eyecups, cryoprotected in 30% sucrose, embedded in optimal cutting temperature compound (Tissue-Tek OCT; Sakura Finetek), and cryosectioned into 10 μm sections. Depigmentation was achieved using 0.25% potassium permanganate and 0.1% oxalic acid. Immunohistochemical staining was performed with the rabbit antibody against NLRP3 (1:100, Sigma Aldrich) or rabbit antibody against Caspase-1 (prediluted, AbCam). Isotype IgG was substituted for the primary antibody to assess the specificity of the staining. Bound antibody was detected with biotin-conjugated secondary antibodies, followed by incubation with ABC reagent and visualized by Vector Blue (Vector Laboratories). Levamisole (Vector Laboratories) was used to block endogenous alkaline phosphatase activity. Slides were washed in PBS, counterstained with neutral red (Fisher Scientific), rinsed with deionized water, air dried, and then mounted in Vectamount (Vector Laboratories). Fluorescent labeling of human tissue was performed with the rabbit antibody against PYCARD (1:50, Clone N-15, Santa Cruz Biotechnology). Immunolabeling was visualized by fluorescently conjugated anti-rabbit secondary antibody (Invitrogen). Tissue autofluorescence was quenched by incubating the sections in 0.3% Sudan black (Fisher Scientific). […]

[2] = test system: human RPE cells
Method: Cell viability. Cell viability measurements were performed using the CellTiter 96 AQueous One Solution Cell Proliferation Assay (Promega) in according to the manufacturer's instructions.
Cell culture. All cell cultures were maintained at 37° C. and 5% CO2. Primary mouse RPE cells were isolated as previously described (Yang et al., 2009) and grown in Dulbecco Modified Eagle Medium (DMEM) supplemented with 20% FBS and standard antibiotics concentrations. Primary human RPE cells were isolated as previously described (Yang et al., 2008) and maintained in DMEM supplemented with 10% FBS and antibiotics. HeLa cells were maintained in DMEM supplemented with 20% FBS and standard antibiotics concentrations. THP-1 cells were cultured in RPMI 1640 medium supplemented with 10% FBS and antibiotics.
Transient transfection. Human or mouse RPE cells were transfected with pUC19, pAlu, pCDNA3.1/Dicer-FLAG, pCDNA3.1, Alu RNA, NLRP3 siRNA sense, PYCARD siRNA sense, MyD88 siRNA sense, DICER1 antisense oligonucleotide (AS), control (for DICER1) AS, Alu AS, and control (for Alu) AS using Lipofectamine 2000 (Invitrogen) according to the manufacturer's instructions.
Cell viability. MTS assays were performed using the CellTiter 96 AQueous One Solution Cell Proliferation Assay (Promega) according to the manufacturer's instructions. For examining the cytoprotective effect of glycine in Alu RNA induced cell death, human RPE cells were transfected with pNull/pAlu. At 6 h post-transfection the cells were incubated with complete media containing glycine (5 mM) or vehicle, and cell viability was assessed after 24 h. Similarly, human RPE cells primed with LPS (5 μg/ml for 6 h) were treated with ATP (25 μM) in the presence of glycine containing media (5 mM). 30 min post ATP cell viability was assessed as described above.

In the case of “MyD88 inhibitory peptide: peptide inhibitor of MyD88 homodimerization IMG-2005 (IMGENEX)”, the “AAV1-BEST1-Cre-induced RPE degeneration” value [1] is reported as “blocked”, the “cell death in human RPE cells treated with antisense oligonucleotides targeting DICER1” value ([2]; DICER1 AS) is reported as “prevented cell death” and the “pAlu-induced human RPE cell death (loss of cell viability)” value ([2]; human RPE cells transfected with pAlu) is reported as “inhibited cell death”.
